Assays:
Cochliobolus miyabeanus = experiment: Cochliobolus test (rice) / protective; details: Bipolaris oryzae, in Oryza sativa, 96 h, read-out: efficacy
Procedure: Cochliobolus Test (Rice)/Protective • Solvent: 28.5 parts by weight of acetone • Emulsifier: 1.5 parts by weight of alkylaryl polyglycol ether
1 day after the treatment, the plants are inoculated with an aqueous spore suspension of Cochliobolus miyabeanus. The plants are then placed in a greenhouse at 100% relative atmospheric humidity and 25° C.
Evaluation is carried out 4 days after the inoculation.

Pyrenophora teres = Pyrenophora teres test (barley) / protective; format: in vivo; details: 192 h, active compound concentration 500 ppm, evaluation 8 days after inoculation, read-out: efficacy
Procedure: After the spray coating has dried on, the plants are sprayed with a spore suspension of Pyrenophora teres. The plants remain in an incubation cabinet for 48 hours at 20° C. and 100% relative atmospheric humidity.

Rhizoctonia solani = experiment: Rhizoctonia test (rice) / protective; format: in vivo; details: 96 h, active compound concentration 250 ppm, evaluation 4 days after inoculation, read-out: efficacy
Pyricularia oryzae = experiment: whole plant or invertebrate; format: in vivo; details: 120 h, read-out: efficacy
Leptosphaeria nodorum = Leptosphaeria nodorum test (wheat) / protective; format: in vivo; details: Parastagonospora nodorum, active compound concentration 500 ppm, evaluation 7-9 days after inoculation, read-out: efficacy
Procedure: Thereafter, the plants are placed in a greenhouse at 90% relative atmospheric humidity and a temperature of 22° C.

Sphaerotheca fuliginea = experiment: Sphaerotheca test (cucumber) / protective; format: in vivo; details: Podosphaera fuliginea, 168 h, active compound concentration 500 ppm, evaluation 7 days after inoculation, read-out: efficacy
Procedure: The plants are subsequently placed in a greenhouse at 70% relative atmospheric humidity and a temperature of 23° C.

[1] = logP by LC-MS on reversed-phase columns (C 18), method [b], acidic range pH 2.7; format: physicochemical; details: for chromatographic logP: pH 2.7, log p
Procedure: (§1) The logP values were determined in accordance with EEC Directive 79/831 Annex V.A8 by HPLC (High Performance Liquid Chromatography) on reversed-phase columns (C 18), using the methods below:
[b] The LC-MS determination in the acidic range is carried out at pH 2.7 using the mobile phases 0.1% aqueous formic acid and acetonitrile (contains 0.1% formic acid), linear gradient from 10% acetonitrile to 95% acetonitrile.

Venturia inaequalis = experiment: Venturia test (apple) / protective; format: in vivo; details: 240 h, active compound concentration 100 ppm, evaluation 10 days after inoculation, read-out: efficacy
Procedure: After the spray coating has dried on, the plants are inoculated with an aqueous conidia suspension of the apple scab pathogen Venturia inaequalis and then remain for 1 day in an incubation cabinet at about 20° C. and 100% relative atmospheric humidity.

Alternaria solani = experiment: Alternaria test (tomato) / protective; format: in vivo; details: 72 h, active compound concentration 100 ppm, evaluation 3 days after inoculation, read-out: efficacy
Procedure: The plants are then placed in an incubation cabinet at about 20° C. and 100% relative atmospheric humidity.

[2] = logP by LC-MS on reversed-phase columns (C 18), method [c], neutral range pH 7.8; format: physicochemical; details: pH 7.8
Procedure: as §1
[c] The LC-MS determination in the neutral range is carried out at pH 7.8 using the mobile phases 0.001 molar aqueous ammonium bicarbonate solution and acetonitrile, linear gradient from 10% acetonitrile to 95% acetonitrile.

Fusarium proliferatum = experiment: Production of fumonisin FB1 by Fusarium proliferatum (microtitre plates; FB1 by HPLC-MS/MS, growth by OD620); format: cell-based

Structure (SMILES)	pest or weed control at 250 ppm (Cochliobolus miyabeanus) [%]	pest or weed control at 500 ppm (Pyrenophora teres) [%]	pest or weed control at 250 ppm (Rhizoctonia solani) [%]	pest or weed control at 250 ppm (Pyricularia oryzae) [%]	pest or weed control at 500 ppm (Leptosphaeria nodorum) [%]	pest or weed control at 500 ppm (Sphaerotheca fuliginea) [%]	chromatographic logP [1]	pest or weed control at 100 ppm (Venturia inaequalis) [%]	pest or weed control at 100 ppm (Alternaria solani) [%]	chromatographic logP [2]	pI50 Fum (Fusarium proliferatum; fumonisin FB1 production, 6 days at 20° C., HPLC-MS/MS)	pI50 growth (Fusarium proliferatum; growth, OD620 at the beginning and after 6 days)	log p ([1]; pH 2.7)
COCc1cccc(Nc2ncc(C(F)(F)F)c(NCC3CC3)n2)c1 [Example 127]	≥ 80	≥ 70	≥ 80	≥ 80	≥ 70	≥ 70							
CCCSc1cccc(Nc2ncc(Cl)c(NC3CCC3)n2)c1 [Example 5]	≥ 80	≥ 70	≥ 80	≥ 80	≥ 70		3.66						
COC(C)c1cccc(Nc2ncc(Cl)c(NCC(F)(F)F)n2)c1 (stereo not drawn) [Example 83]	≥ 80		≥ 80	≥ 80	≥ 70	≥ 70	2.82	≥ 70	≥ 70	3.18			
CC[S+]([O-])C(C)c1cccc(Nc2ncc(Cl)c(NC3CCC3)n2)c1 (stereo not drawn) [Example 76]	≥ 80	≥ 70	≥ 80	≥ 80	≥ 70	≥ 70	1.68	≥ 70	≥ 70	2.53			
COC(C)c1cc(Nc2ncc(Cl)c(NC3CC3)n2)ccc1C (stereo not drawn) [Example 92]	≥ 80			≥ 80	≥ 70	≥ 70	2.11	≥ 70	≥ 70	3.7			
CCOCCOc1ccc(Nc2ncc(C(F)(F)F)c(NC3CC3)n2)cc1 [Example 91]	≥ 80	≥ 70	≥ 80	≥ 80	≥ 70	≥ 70	3.26			3.64			
CCS(=O)(=O)c1cccc(Nc2ncc(C(F)(F)F)c(NC3CC3)n2)c1 [Example 116]	≥ 80	≥ 70	≥ 80	≥ 80	≥ 70	≥ 70	2.74	≥ 70		2.8			
CC[S+]([O-])C(C)c1cccc(Nc2ncc(C(F)(F)F)c(NC3CC3)n2)c1 (stereo not drawn) [Example 45]											5.0	4.7	2.2[b]
COC(C)c1cccc(Nc2ncc(Cl)c(NC3CCC3)n2)c1 (stereo not drawn) [Example 15]	≥ 80	≥ 70	≥ 80	≥ 80	≥ 70	≥ 70	2.27	≥ 70	≥ 70				
CCCC[S+]([O-])c1cccc(Nc2ncc(Br)c(NC3CC3)n2)c1 (stereo not drawn) [Example 126]	≥ 80	≥ 70	≥ 80	≥ 80	≥ 70		2.28			2.86			
CCCCS(=O)(=O)c1cccc(Nc2ncc(C(F)(F)F)c(NC3CC3)n2)c1 [Example 121]	≥ 80		≥ 80	≥ 80	≥ 70	≥ 70	3.4	≥ 70	≥ 70	3.46			

— patent US20110245284A1, “Alkoxy- and Alkylthio-Substituted Anilinopyrimidines” (Bayer CropScience AG, priority 2008, published 2011)
